The values below come from patent US20130171162A1, “COMPOSITIONS AND METHODS FOR THE PREVENTION OF OXIDATIVE DEGRADATION OF PROTEINS” (priority 2008, published 2013).

“Also recorded” adds a separate entry of the source. Where two headings read alike, the source gives them in different places.

Data set [1] can be described thus: Anti-VEGF antibody oxidation, IEC chromatogram. The settings on record: for oxidation / oxidative species in basic region of IEC: H2O2.
The test system of data set [2] is PTH. The data set is described as follows: Screening stabilizers for PTH oxidized by AAPH, H2O2 plus Fe(II), H2O2; rp-HPLC. To be noted: for protection of Trp residue in PTH: stress AAPH 1 mM, stabilizer 2 mg/mL; for protection of Trp residue in PTH / protection of PTH against oxidation: 40° C., 6 hours; for protection of PTH against oxidation: stress AAPH. The data set is classed as physicochemical. How it is done: The protein solution was subsequently stressed by the addition of 1 mM of AAPH, and incubated at 40° C. for 6 hours.
The experiments were carried on a Waters HPLC instrument using a C4 (Vydac, 214TP, 5μ, 2.1×250 mm). The solvent A was 0.1% trifluoracetic acid (TFA) in H2O and the solvent B was 0.08% TFA in acetonitrile. The samples were analyzed with a linear gradient from 20% B to 80% B at a flow rate of 0.2 mL/min in 45 min. The column temperature was set at 30° C.

In data set [3] the test system is PTH. Described as above. The data set is classed as physicochemical.
The test system of data set [4] is PTH. The settings on record: AAPH, FIG. 11.
Data set [5] relates to anti-VEGF antibody. The settings on record: for protection of anti-VEGF antibody against oxidation (basic peaks in IEC): AAPH, free Trp 2 or 10 mg/mL.
[6] abbreviates: stress H2O2 plus Fe(II) (Fenton reaction), 40° C., 6 hours.

Take “anti-VEGF antibody: humanized anti-VEGF antibody fragment, indicated for the treatment of neovascular (wet) age-related macular degeneration”: in data set [1] (AAPH), the “oxidation / peaks in basic region of IEC” value was “produced additional peaks in the basic region of IEC chromatogram”. In addition, the “oxidation / oxidative species in basic region of IEC” value in data set [1] is recorded as “did not cause the anti-VEGF antibody oxidation”; in data set [1] (listed as anti-VEGF) it was “no oxidative species in basic region”.
Take `Cc1c(C)c2c(c(C)c1O)CCC(C)(C(=O)O)O2` (stereo not shown) [trolox, 6-hydroxy-2,5,7,8-tetramethylchroman-2-carboxylic acid]: the “protection of Trp residue in PTH” value in data set [2] is given as “excellent protection”.
For `OC[C@H]1O[C@@](CO)(O[C@H]2O[C@H](CO)[C@@H](O)[C@H](O)[C@H]2O)[C@@H](O)[C@@H]1O` [Sucrose, sucrose], in data set [3] (setting [6]), the “protection of PTH against oxidation” value was “less effective than mannitol”.
As for `N[C@@H](Cc1c[nH]c2ccccc12)C(=O)O` [free tryptophan, L-Tryptophan], in data set [4], the “Trp oxidation of PTH, relative quantification by EIC” value is listed as “suppressed the Trp oxidation significantly”. For the same compound, the “protection of anti-VEGF antibody against oxidation (basic peaks in IEC)” value in data set [5] was “excellent protection”; in data set [5] (listed as Free Trp), “effective in mitigating oxidation”; in data set [5] (listed as free Trp), “dropped to the baseline”; in data set [5] (listed as tryptophan), “effectively blocked the oxidative reaction”. Also, the “Met[O]-PTH peaks” value in data set [3] (free Trp 2 mg/mL, Fenton reaction) is on record as “much less so”; in data set [2] (free Trp 2 mg/mL, AAPH stress), “prominent”. Besides, the “protection of Trp residue in PTH” value in data set [3] (stress Fenton reaction, stabilizer 2 mg/mL, 40° C., 6 hours) is “good protection”; in data set [2], “good protection”. Also, the “protection of PTH against oxidation” value in data set [3] (stress H2O2, 40° C., 6 hours) is listed as “no protection”; in data set [2] it was “effective only against the oxidation by AAPH”.
Turning to `O=C([O-])CN(CCN(CC(=O)[O-])CC(=O)O)CC(=O)O.[Na+].[Na+]` [EDTA, EDTA disodium], in data set [5] (EDTA added as stabilizer), the “effect on Trp 50 oxidation of anti-VEGF antibody” value is listed as “inhibited; also recorded: improved stability”.
Regarding `CSCC[C@H](N)C(=O)O` [free methionine, L-Methionine], in data set [4], the “Met oxidation of PTH, relative quantification by EIC” value was “suppressed the Met oxidation significantly”. Besides, the “effect on the oxidation of Trp in PTH (Trp[O] peak)” value in data set [3] (free Met 2 mg/mL, FIG. 6) is listed as “no effect”. The “oxidation of Met residues in PTH (Met[O]-PTH peaks)” value in data set [3] (free Met 2 mg/mL, FIG. 6) was “significantly reduced”. Also, the “protection of PTH against oxidation” value in data set [3] (stress H2O2, 40° C., 6 hours) is given as “protected”; in data set [3] (stress H2O2, 40° C., 6 hours, listed as Free Met) it was “neutralized the effect of the oxidants H2O2”; in data set [3] (setting [6]), “protected”; in data set [3] (stress H2O2 plus Fe(II) (Fenton reaction), 40° C., 6 hours, listed as Free Met) it was “neutralized the effect of the oxidants H2O2”.
For the compound `OC[C@@H](O)[C@@H](O)[C@H](O)[C@H](O)CO` [mannitol, Mannitol], the “protection of PTH against oxidation” value in data set [3] (stress H2O2, 40° C., 6 hours) is “not protected by mannitol at all”; in data set [3] (setting [6]), “effective; also recorded: complete protection”; in data set [2], “not protected by mannitol at all”.
`Cc1ncc(CO)c(CO)c1O` [pyridoxine]: the “protection of Trp residue in PTH” value in data set [2] is “excellent protection”.
